The source made the active and inactive calls. No cut-off for these calls is given here.
How the values were obtained:
Sus scrofa [1] = species: Sus scrofa; test: Inhibition of cisplatin-induced MAPK p38 phosphorylation in pig LLC-PK1 cells at 10 to 50 uM after 24 hrs by Western blot method; type: cell-based
LLC-PK1 [2] = test: Renoprotective activity in pig LLC-PK1 cells assessed as inhibition of cisplatin-induced cleaved caspase-3 levels at 10 to 50 uM after 24 hrs by Western blot method; type: functional, cell-based; conditions: Sus scrofa
LLC-PK1 [3] = test: Renoprotective activity in pig LLC-PK1 cells assessed as inhibition of cisplatin-induced cell death by measuring cell viability at 50 uM by flow cytometry; type: functional, cell-based; conditions: Sus scrofa
LLC-PK1 [4] = test: Renoprotective activity in pig LLC-PK1 cells assessed as inhibition of cisplatin-induced oxidative stress by measuring cell viability at 25 uM after 24 hrs by MTT assay relative to control; type: functional, Sus scrofa
LLC-PK1 [5] = test: Renoprotective activity in pig LLC-PK1 cells assessed as inhibition of cisplatin-induced cytotoxicity by measuring cell viability at 10 to 50 uM by phase contrast microscopic method; type: functional, cell-based; conditions: Sus scrofa
Sus scrofa [6] = species: Sus scrofa; test: Inhibition of cisplatin-induced MAPK JNK phosphorylation in pig LLC-PK1 cells at 10 to 50 uM after 24 hrs by Western blot method; type: cell-based
LLC-PK1 [7] = test: Renoprotective activity in pig LLC-PK1 cells assessed as inhibition of cisplatin-induced oxidative stress by measuring cell viability up to 250 uM after 24 hrs by MTT assay; type: functional, cell-based; conditions: Sus scrofa

C/C=C1/[C@@H](n2cc(CO)nn2)C[C@H]2[C@@H]3CCC4=CC(=O)CC[C@]4(C)[C@H]3CC[C@]12C
inhibition (Sus scrofa [1]): Active | inhibition (LLC-PK1 [2]): Active | inhibition (LLC-PK1 [3]): Active | Activity (LLC-PK1 [4]): >90% | inhibition (LLC-PK1 [5]): Active | inhibition (Sus scrofa [6]): Active

C/C=C1/[C@@H](n2cc(-c3ccc(C)cc3)nn2)C[C@H]2[C@@H]3CCC4=CC(=O)CC[C@]4(C)[C@H]3CC[C@]12C
inhibition (LLC-PK1 [7]): Active

C/C=C1/[C@@H](n2cc(-c3ccccc3)nn2)C[C@H]2[C@@H]3CCC4=CC(=O)CC[C@]4(C)[C@H]3CC[C@]12C
inhibition (LLC-PK1 [7]): Active

C/C=C1/[C@@H](n2cc(-c3ccc(F)cc3)nn2)C[C@H]2[C@@H]3CCC4=CC(=O)CC[C@]4(C)[C@H]3CC[C@]12C
inhibition (LLC-PK1 [7]): Active

C/C=C1/[C@@H](n2cc(CCCC#N)nn2)C[C@H]2[C@@H]3CCC4=CC(=O)CC[C@]4(C)[C@H]3CC[C@]12C
inhibition (LLC-PK1 [7]): inactive

C/C=C1/[C@@H](n2cc(CCCC)nn2)C[C@H]2[C@@H]3CCC4=CC(=O)CC[C@]4(C)[C@H]3CC[C@]12C
inhibition (LLC-PK1 [7]): inactive

— ChEMBL document CHEMBL4020796, “Evaluation of guggulsterone derivatives as novel kidney cell protective agents against cisplatin-induced nephrotoxicity” (2017)
